The values that follow come from patent US8680281B2, “Lactam inhibitors of 11-β-hydroxysteroid dehydrogenase 1” (Vitae Pharmaceuticals, Inc., priority 2008, dated 2014).

For the assay, the target named is human 11β-HSD1 (Homo sapiens, UniProt P28845). Description: Biological Test Example 1: inhibition of a microsomal preparation of 11β-HSD1 (SPA). The class given is biochemical. To be noted: microsomes from CHO cells overexpressing human 11β-HSD1; for inhibition at 0.1 µM: at 100 nM; for IC50: read-out: IC50 Range.
human 11β-HSD1, sequence (P28845 whole entry): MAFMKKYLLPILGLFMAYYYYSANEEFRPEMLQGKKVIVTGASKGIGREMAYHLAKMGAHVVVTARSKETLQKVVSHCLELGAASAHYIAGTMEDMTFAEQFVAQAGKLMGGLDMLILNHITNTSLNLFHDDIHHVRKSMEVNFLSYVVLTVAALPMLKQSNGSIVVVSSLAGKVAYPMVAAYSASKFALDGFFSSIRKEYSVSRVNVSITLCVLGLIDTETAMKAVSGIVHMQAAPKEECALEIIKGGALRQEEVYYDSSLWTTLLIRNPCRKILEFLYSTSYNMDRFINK

Regarding `C[C@@H](c1ccc(Br)cc1)N1CC[C@](CC(C)(C)C#N)(c2ccccc2)CC1=O` [EXAMPLE 10, 3-((S)-1-((S)-1-(4-bromophenyl)ethyl)-2-oxo-4-phenylpiperidin-4-yl)-2,2-dimethylpropanenitrile], the inhibition (in general, the drop in the measured response relative to a control, in per cent) at 0.1 µM was 96% and the IC50 – broadly, the concentration needed to halve the response being measured – was less than 100 nM.
With `C[C@@H](c1ccc(-c2ccc(=O)[nH]c2)cc1)N1CC[C@](CC(C)(C)O)(c2ccccc2)CC1=O` [EXAMPLE 13, 5-(4-((S)-1-((R)-4-(2-hydroxy-2-methylpropyl)-2-oxo-4-phenylpiperidin-1-yl)ethyl)phenyl)pyridin-2(1H)-one], the inhibition at 0.1 µM came out at 94.3% and the IC50 was less than 100 nM.
For the molecule `C[C@@H](c1ccc(-c2ccc(=O)n(C)c2)cc1)N1CC[C@@](CCCO)(c2ccc(F)cc2)CC1=O` (single isomer, unassigned) [EXAMPLE 5 Isomer 2], the inhibition at 0.1 µM came out at 10.7% and the IC50 is more than 100 nM.
`C[C@@H](c1ccc(-c2ccc(=O)n(C)c2)cc1)N1CC[C@](CC(C)(C)O)(c2ccccc2)CC1=O` [EXAMPLE 9, 5-(4-((S)-1-((R)-4-(2-hydroxy-2-methylpropyl)-2-oxo-4-phenylpiperidin-1-yl)ethyl)phenyl)-1-methylpyridin-2(1H)-one]: the inhibition at 0.1 µM worked out at 92.7% and the half-maximal inhibitory concentration (IC50) is less than 100 nM.
`C[C@@H](c1ccc(Br)cc1)N1CC[C@](CCC(N)=O)(c2ccc(F)cc2)CC1=O` (single isomer, unassigned) [EXAMPLE 4 Isomer 1]: the inhibition at 0.1 µM was found to be 96.8% and the IC50 was less than 100 nM.
In the case of `C[C@@H](c1ccc(-c2ccn(C)c(=O)c2)cc1)N1CC[C@](CC(C)(C)O)(c2ccccc2)CC1=O` [EXAMPLE 8, 4-(4-((S)-1-((R)-4-(2-hydroxy-2-methylpropyl)-2-oxo-4-phenylpiperidin-1-yl)ethyl)phenyl)-1-methylpyridin-2(1H)-one], the inhibition at 0.1 µM was determined as 93% and the IC50 is less than 100 nM.
Turning to `C[C@@H](c1ccc(Br)cc1)N1CC[C@](CC(C)(C)O)(c2ccccc2)CC1=O` [EXAMPLE 7, (R)-1-((S)-1-(4-bromophenyl)ethyl)-4-(2-hydroxy-2-methylpropyl)-4-phenylpiperidin-2-one], the inhibition at 0.1 µM amounted to 98% and the IC50 is less than 100 nM.
In the case of `C[C@@H](c1ccc(-c2ccc(F)cc2)cc1)N1CC[C@](CCO)(c2ccccc2)CC1=O` (single isomer, unassigned) [EXAMPLE 3 Isomer 1], the inhibition at 0.1 µM was found to be 97.9% and the IC50 was less than 100 nM.
In the case of `C[C@@H](c1ccc(-c2cc[nH]c(=O)c2)cc1)N1CC[C@](CC(C)(C)O)(c2ccccc2)CC1=O` [EXAMPLE 12, 4-(4-((S)-1-((R)-4-(2-hydroxy-2-methylpropyl)-2-oxo-4-phenylpiperidin-1-yl)ethyl)phenyl)pyridin-2(1H)-one], the inhibition at 0.1 µM amounted to 95.9% and the IC50 is less than 100 nM.
In the same order, the values of `C[C@@H](c1ccc(Br)cc1)N1CC[C@](CC(C)(C)C(N)=O)(c2ccccc2)CC1=O` [EXAMPLE 11, 3-((S)-1-((S)-1-(4-bromophenyl)ethyl)-2-oxo-4-phenylpiperidin-4-yl)-2,2-dimethylpropanamide] are 95.5% and less than 100 nM.
On to `C[C@@H](c1ccc(Br)cc1)N1CC[C@@](CCC(N)=O)(c2ccc(F)cc2)CC1=O` (single isomer, unassigned) [EXAMPLE 4 Isomer 2], for which the inhibition at 0.1 µM came out at 27.8% and the IC50 was more than 100 nM.
The like results for `CC[C@@H](c1ccc(Br)cc1)N1CC[C@](CC(C)(C)O)(c2ccccc2)CC1=O` (single isomer, unassigned) [EXAMPLE 6 Isomer 1] were, in that order, 98.3% and less than 100 nM.
Take `C[C@@H](c1ccc(-c2ccc(=O)n(C)c2)cc1)N1CC[C@](CCCO)(c2ccc(F)cc2)CC1=O` (single isomer, unassigned) [EXAMPLE 5 Isomer 1]: the inhibition at 0.1 µM came to 94% and the 50% inhibitory concentration (IC50) was less than 100 nM.
In the case of `C[C@@H](c1ccc(Br)cc1)N1CC[C@@](CCO)(c2ccccc2)CC1=O` (single isomer, unassigned) [EXAMPLE 2 Isomer 2], the inhibition at 0.1 µM amounted to 73.8% and the IC50 is less than 100 nM.
On to `C[C@@H](c1ccc(-c2ccc(F)cc2)cc1)N1CC[C@@](CCO)(c2ccccc2)CC1=O` (single isomer, unassigned) [EXAMPLE 3 Isomer 2], for which the inhibition at 0.1 µM amounted to 61.3% and the IC50 was less than 100 nM.
As to `C[C@@H](c1ccc(Br)cc1)N1CC[C@](CCO)(c2ccccc2)CC1=O` (single isomer, unassigned) [EXAMPLE 2 Isomer 1], the inhibition at 0.1 µM stood at 101% and the IC50 was less than 100 nM.
The like results for `CC[C@@H](c1ccc(Br)cc1)N1CC[C@@](CC(C)(C)O)(c2ccccc2)CC1=O` (single isomer, unassigned) [EXAMPLE 6 Isomer 2] were, in that order, 82.6% and less than 100 nM.
